The results in this text go back to article PMC6017654, “Ionic Liquid-Promoted Synthesis of Novel Chromone-Pyrimidine Coupled Derivatives, Antimicrobial Analysis, Enzyme Assay, Docking Study and Toxicity Study” (Molecules : A Journal of Synthetic Chemistry and Natural …, 2018).

In data set [1] the test system is ergosterol biosynthesis in Candida albicans (NCIM-3471). The data set is described as follows: Ergosterol extraction and quantitation assay (UV sterol profile). The data set is classed as cell-based. The conditions noted are these: C. albicans NCIM3471. As for the experimental part:
Changes in this absorption pattern are therefore indicative of interference in the synthetic pathway of ergosterol.
A single Candida albicans (NCIM-3471) colony from an overnight Sabouraud dextrose agar plate culture was used to inoculate 50 mL of Sabouraud dextrose broth for control and for various concentrations of the molecules. The cultures were incubated for 16 hours and harvested by centrifugation at 2700 rpm (856× g) for five min. The net weight of the cell pellet was determined. Three mL of 25% alcoholic potassium hydroxide solution was added to each pellet and vortex mixed for one min. Cell suspensions were transferred to sterile borosilicate glass screw-cap tubes and were incubated in an 85 °C water bath for one hour. Following incubation, the tubes were allowed to cool. Sterols were then extracted by addition of a mixture of 1 mL of sterile distilled water and 3 mL of n-heptane followed by vigorous vortex mixing for 3 min. The heptane layer was transferred to a clean borosilicate glass screw-cap tube and stored at −20 °C. Prior to analysis, 0.6 mL aliquot of sterol extract was diluted five fold in 100% ethanol and scanned spectrophotometrically between 240 nm and 300 nm with a spectrophotometer (UV-Visible Spectrophotometer 2100, Thermo Fischer Scientific, Waltham, MA, USA). The presence of ergosterol and the late sterol intermediate 24(28)-dehydroergosterol (DHE) in the extracted sample results in a characteristic four-peaked curve. The absence of detectable ergosterol in extracts was indicated by a flat line.
Sterols were extracted from cells and spectral profiles between 240 and 300 nm were determined.

Data set [2] has as its system Swiss albino mice. Nature of the data set: In vivo acute oral toxicity study and gross behavioral study (OECD guideline No. 425). As to the method: The in vivo acute oral toxicity and gross behavioral study results of the newly synthesized compounds 6c and 6f are as listed in Table 12 [26].
Each group, consisting of six Swiss albino mice (18–22 gm weight, overnight fasted), were kept in colony cage at 25 ± 2 °C with 55% relative humidity and 12 h of light and dark cycle. A specified dose of 100, 250, 500, 750, 1000, 1500 and 2000 mg/kg body weight of mice was administered orally as a single dose. The acute toxic symptoms and the behavioral changes produced by the test compounds were observed continuously for 4 h periods at 8th, 12th and 24th h on set of toxic symptoms and the gross behavioral changes were also recorded. These animals were maintained for further 10 days with observation made daily. The in vivo acute oral toxicity study was carried out at animal house at the Y.B. Chavan College of Pharmacy, Aurangabad IAEC approval number CPCSEA/IAEC/P’col-52/2015-16/115 [26].

Turning to `COc1ccc2occ(C3NC(=S)NC(C)=C3C(=O)NN)c(=O)c2c1` (stereo not shown) [Compound 6f, 4-(6-Methoxy-4-oxo-4H-chromen-3-yl)-6-methyl-2-thioxo-1,2,3,4-tetrahydropyrimidine-5-carbohydrazide], the “ergosterol peak in UV sterol profile at the MIC value” in data set [1] (6f 24 µg/mL, miconazole 25 µg/mL, 281.5 nm) is given as “almost a flat peak”. In data set [1] (MIC/16 to MIC (1.5 to 24 µg/mL)), the “ergosterol peak at 281.5 nm with increasing concentration” value was “intensity of the ergosterol peak at 281.5 nm decreases”. For the same compound, the “No. of Deaths” value in data set [2] (Swiss albino mice, single oral dose 100 to 2000 mg/kg) is reported as “N”. Moreover, in data set [2] (mice, oral, single dose, no mortality up to 2000 mg/kg), the lethal dose result was “above 2000 mg/kg body weight”.
